The source made the active and inactive calls. No rule for the calls is given here.

CC50 data for 4 molecules are collected here from PubChem BioAssay AID602337 (The Scripps Research Institute Molecular Screening Center, 2012).

The nature of this assay: mammalian cell viability loss – absorbance, serum and serum-free conditions, cytotoxicity control for DAGLb inhibitor project, dose response (AID 602337). The following applies: absorbance readout.

In the case of `O=C(N1CCCCC1Cc1ccccc1)n1cc(-c2ccc(-c3ccccc3)cc2)nn1` (stereo not drawn), the half-maximal cytotoxic concentration (CC50) was 4.2 µM (with serum) and > 100 µM (inactive) (without serum).
Turning to `COc1ccccc1-c1ccc(-c2cn(C(=O)N3CCCCC3Cc3ccccc3)nn2)cc1` (stereo not drawn), the cytotoxic concentration (CC50) runs as follows: (with serum) 3.1 µM; (without serum) > 100 µM (inactive).
Regarding `COc1ccc(-c2ccc(-c3cn(C(=O)N4CCCCC4c4ccccc4)nn3)cc2)cc1` (stereo not drawn), the CC50 is 5.9 µM (with serum) and > 100 µM (inactive) (without serum).
On to `O=C(N1CCCCC1c1ccccc1)n1cc(-c2ccc(-c3ccccc3)cc2)nn1` (stereo not drawn), for which the CC50 is, setting by setting: (with serum) > 50 µM (inactive); (without serum) > 100 µM (inactive).

As usually defined, the CC50 is the concentration giving 50% cytotoxicity.
